Test results as given in US10519504B2, “Methods for treatment of oncological disorders using epimetabolic shifters, multidimensional intracellular molecules, or environmental influencers” (Berg LLC, priority 2009, dated 2019).

System: Pyruvate Dehydrogenase-B (PDH-E1)
Assay: Western blot, Pyruvate Dehydrogenase beta levels
Type: cell-based, human
Procedure: The pyruvate kinase blots were stripped by incubating for 30 minutes with methanol, followed by two 10 minute washes with TBS-T, then 30 minutes of incubation with Stripping buffer at 50 deg C., and followed by two washes with 100 ml or more of TBS-T for 30′ each. The 2 blots were scanned in laser scanner to check for complete stripping. After making sure stripping of the antibody and the ECF reagent has worked, the blots were activated with methanol for 5 seconds, washed with water for 5 minutes, and TBST for 15 minutes. The blots are blocked for 1 hour with 5% blocking reagent in TBS-T at room temperature and then washed 3 times with TBS-T (1X−15′; 2X5′ each) and probed with the antibody for Pyruvate Dehydrogenase in 5% BSA (ABNOVA catalog #H00005162-M03) at 1:500 dilutions) overnight at 4 deg C. with shaking. After the overnight incubation with primary antibody for Pyruvate Dehydrogenase, the membranes were washed 3 times with TBS-T (1X−15′; 2X5′ each) and probed with the secondary antibody (antimouse; 1:10,000 dilution) for 1 h on the orbital tilting shaker at room temperature. […]
The levels of LDH and PDH were determined by probing the blots successively with primary antibodies for LDH and PDH, essentially as described above. […]

COC1=C(OC)C(=O)C(C/C=C(\C)CC/C=C(\C)CC/C=C(\C)CC/C=C(\C)CC/C=C(\C)CC/C=C(\C)CC/C=C(\C)CC/C=C(\C)CC/C=C(\C)CCC=C(C)C)=C(C)C1=O [Q10, Coenzyme Q10]
expression of PDH-E1 (cancer cells): progressive increase in the expression of the PDH-E1 proteins
expression of PDH-E1 (normal cells): minimal changes in the normal cells
